tested on: THP1-Dual™ reporter cells; test: THP1-Dual cell reporter assay (IRF-Lucia luciferase reporter); format: cell-based, human; conditions: ADCs: drug linker conjugated to a targeted mAb, 48 h
Procedure: THP1-Dual™ Cell Reporter Assay
Potency of compounds and ADCs was evaluated using the THP1-Dual™ cells (InvivoGen PN: thpd-nfis [also referred to as THP1 dual reporter cells]), which contain an IRF-Lucia luciferase reporter. Cells were cultured in RPMI-1640 (Gibco) with 10% heat-inactivated fetal bovine serum, Pen-Strep (100 U/mL-100 μg/mL, Gibco), HEPES (10 mM, Gibco)), sodium pyruvate (1 mM, Gibco), MEM non-essential amino acids (1×, Gibco), GlutaMAX (1×, Gibco), and beta-mercaptoethanol (55 μM, Gibco). Cells were plated in a 96-well flat bottom tissue culture-treated clear polystyrene plate (Corning Costar #3596) at ˜100,000 cells per well in 200 μL with the indicated concentration of the compound or ADC. The supernatant was harvested at 24 hours (compounds) or 48 hours (ADC) post plating for the reporter assay, or as indicated. To measure Lucia reporter signal, 10 μL of the supernatant was combined with 40 μL of QUANTI-Luc™ Luminescence assay reagent (Invivogen PN: rep-qlc1) in a 96-well clear flat bottom tissue culture-treated black polystyrene plate (Corning Costar #3603) and read on a Perkin Elmer Envision plate reader.
STING agonist compounds were assessed for their ability to activate THP1-Dual™ reporter cells, a human monocytic cell line in which type I interferon (IRF) signaling can be monitored via a secreted luciferase reporter protein (Lucia). THP1-Dual™ cells were treated with increasing concentrations of the agonists for 24h, then supernatants were harvested and the Lucia reporter signal was quantified using QUANTI-Luc™ Luminescence assay reagent.

Row | Structure (SMILES) | EC50 [µg/mL]
1 | CCn1nc(C)cc1C(=O)Nc1nc2cc(C(N)=O)cc(OC)c2n1C/C=C/Cn1c(NC(=O)c2cc(C)nn2CC)nc2cc(C(N)=O)cc(OCCCN(C)C(=O)[C@H](CC(=O)O)NC(=O)CCN3C(=O)C=CC3=O)c21 [Compound 17, (S,E)-4-((3-((5-carbamoyl-1-(4-(5-carbamoyl-2-(1-ethyl-3-methyl-1H-pyrazole-5-carboxamido)-7-methoxy-1H-benzo[d]imidazol-1-yl)but-2-en-1-yl)-2-(1-ethyl-3-methyl1H-pyrazole-5-carboxamido)-1H-benzo[d]imidazol-7-yl)oxy)propyl)(methyl)amino)-3-(3-(2,5-dioxo-2,5-dihydro-1H-pyrrol-1-yl)propanamido)-4-oxobutanoic acid] | 0.0022
2 | CCn1nc(C)cc1C(=O)Nc1nc2cc(C(N)=O)cc(OC)c2n1C/C=C/Cn1c(NC(=O)c2cc(C)nn2CC)nc2cc(C(N)=O)cc(OCCCN(C)C(=O)[C@H](CO)NC(=O)CCN3C(=O)C=CC3=O)c21 [Compound 24, (S,E)-1-(4-(5-carbamoyl-2-(1-ethyl-3-methyl-1H-pyrazole-5-carboxamido)-7-methoxy-1H-benzo[d]imidazol-1-yl)but-2-en-1-yl)-7-(3-(2-(3-(2,5-dioxo-2,5-dihydro-1H-pyrrol-1-yl)propanamido)-3-hydroxy-N-methylpropanamido)propoxy)-2-(1-ethyl-3-methyl-1H-pyrazole-5-carboxamido)-1H-benzo[d]imidazole-5-carboxamide] | 0.0021
3 | CCn1nc(C)cc1C(=O)Nc1nc2cc(S(N)(=O)=O)ccc2n1C/C=C/Cn1c(NC(=O)c2cc(C)nn2CC)nc2cc(C(N)=O)cc(OCCCN(C)C(=O)CCN3C(=O)C=CC3=O)c21 [Compound 25, (E)-7-(3-(3-(2,5-dioxo-2,5-dihydro-1H-pyrrol-1-yl)-N-methylpropanamido)propoxy)-2-(1-ethyl-3-methyl-1H-pyrazole-5-carboxamido)-1-(4-(2-(1-ethyl-3-methyl-1H-pyrazole-5-carboxamido)-5-sulfamoyl-1H-benzo[d]imidazol-1-yl)but-2-en-1-yl)-1H-benzo[d]imidazole-5-carboxamide] | 0.307
4 | CCn1nc(C)cc1C(=O)Nc1nc2cc(C(N)=O)cc(OC)c2n1C/C=C/Cn1c(NC(=O)c2cc(C)nn2CC)nc2cc(C(N)=O)cc(OCCC3CN(C(=O)CCN4C(=O)C=CC4=O)C3)c21 [Compound 26, (E)-1-(4-(5-carbamoyl-2-(1-ethyl-3-methyl-1H-pyrazole-5-carboxamido)-7-methoxy-1H-benzo[d]imidazol-1-yl)but-2-en-1-yl)-7-(2-(1-(3-(2,5-dioxo-2,5-dihydro-1H-pyrrol-1-yl)propanoyl)azetidin-3-yl)ethoxy)-2-(1-ethyl-3-methyl-1H-pyrazole-5-carboxamido)-1H-benzo[d]imidazole-5-carboxamide] | 0.0144
5 | CCn1nc(C)cc1C(=O)Nc1nc2cc(C(N)=O)cc(OC)c2n1C/C=C/Cn1c(NC(=O)c2cc(C)nn2CC)nc2cc(C(N)=O)cc(OCCCOC3CN(C(=O)CCN4C(=O)C=CC4=O)C3)c21 [Compound 27, (E)-1-(4-(5-carbamoyl-2-(1-ethyl-3-methyl-1H-pyrazole-5-carboxamido)-7-methoxy-1H-benzo[d]imidazol-1-yl)but-2-en-1-yl)-7-(3-((1-(3-(2,5-dioxo-2,5-dihydro-1H-pyrrol-1-yl)propanoyl)azetidin-3-yl)oxy)propoxy)-2-(1-ethyl-3-methyl-1H-pyrazole-5-carboxamido)-1H-benzo[d]imidazole-5-carboxamide] | 0.0104

same assay, conditions: Homo sapiens, THP1-Dual, 24 h, free compounds, 24 h, Lucia reporter signal; read-out: EC50

Row | Structure (SMILES) | EC50 [nM]
6 | CCn1nc(C)cc1C(=O)Nc1nc2cc(C(N)=O)cc(OC)c2n1C/C=C/Cn1c(NC(=O)c2cc(C)nn2CC)nc2cc(C(N)=O)cc(OCCCN(C)C(=O)CCN3C(=O)C=CC3=O)c21 [Compound 12, (E)-1-(4-(5-carbamoyl-2-(1-ethyl-3-methyl-1H-pyrazole-5-carboxamido)-7-methoxy-1H-benzo[d]imidazol-1-yl)but-2-en-1-yl)-7-(3-(3-(2,5-dioxo-2,5-dihydro-1H-pyrrol-1-yl)-N-methylpropanamido)propoxy)-2-(1-ethyl-3-methyl-1H-pyrazole-5-carboxamido)-1H-benzo[d]imidazole-5-carboxamide] | 37

same assay, conditions: Homo sapiens, THP1-Dual; free compounds, 24 h, Lucia reporter signal; read-out: EC50

Row | Structure (SMILES) | EC50 [nM]
7 | CCn1nc(C)cc1C(=O)Nc1nc2cc(C(N)=O)cc(O)c2n1C/C=C/Cn1c(NC(=O)c2cc(C)nn2CC)nc2cc(C(N)=O)cc(OCCCNC)c21 [Compound 15b] | 5.8
8 | CCn1nc(C)cc1C(=O)Nc1nc2cc(C(N)=O)cc(OC)c2n1C/C=C/Cn1c(NC(=O)c2cc(C)nn2CC)nc2cc(C(N)=O)cc(OCCCN(C)C(=O)[C@H](CC(=O)O)NC(=O)CCN3C(=O)C=CC3=O)c21 [Compound 17, (S,E)-4-((3-((5-carbamoyl-1-(4-(5-carbamoyl-2-(1-ethyl-3-methyl-1H-pyrazole-5-carboxamido)-7-methoxy-1H-benzo[d]imidazol-1-yl)but-2-en-1-yl)-2-(1-ethyl-3-methyl1H-pyrazole-5-carboxamido)-1H-benzo[d]imidazol-7-yl)oxy)propyl)(methyl)amino)-3-(3-(2,5-dioxo-2,5-dihydro-1H-pyrrol-1-yl)propanamido)-4-oxobutanoic acid] | 66.3
9 | CCn1nc(C)cc1C(=O)Nc1nc2cc(C(N)=O)cc(OC)c2n1C/C=C/Cn1c(NC(=O)c2cc(C)nn2CC)nc2cc(C(N)=O)cc(OCCCN(C)C(=O)[C@H](CO)NC(=O)CCN3C(=O)C=CC3=O)c21 [Compound 24, (S,E)-1-(4-(5-carbamoyl-2-(1-ethyl-3-methyl-1H-pyrazole-5-carboxamido)-7-methoxy-1H-benzo[d]imidazol-1-yl)but-2-en-1-yl)-7-(3-(2-(3-(2,5-dioxo-2,5-dihydro-1H-pyrrol-1-yl)propanamido)-3-hydroxy-N-methylpropanamido)propoxy)-2-(1-ethyl-3-methyl-1H-pyrazole-5-carboxamido)-1H-benzo[d]imidazole-5-carboxamide] | 83.3
10 | CCn1nc(C)cc1C(=O)Nc1nc2cc(S(N)(=O)=O)ccc2n1C/C=C/Cn1c(NC(=O)c2cc(C)nn2CC)nc2cc(C(N)=O)cc(OCCCN(C)C(=O)CCN3C(=O)CC(SC[C@H](N)C(=O)O)C3=O)c21 (stereo partly drawn) [Compound 28, S-(1-(3-((3-((5-carbamoyl-2-(1-ethyl-3-methyl-1H-pyrazole-5-carboxamido)-1-((E)-4-(2-(1-ethyl-3-methyl-1H-pyrazole-5-carboxamido)-5-sulfamoyl-1H-benzo[d]imidazol-1-yl)but-2-en-1-yl)-1H-benzo[d]imidazol-7-yl)oxy)propyl)(methyl)amino)-3-oxopropyl)-2,5-dioxopyrrolidin-3-yl)-L-cysteine] | 954
11 | CCn1nc(C)cc1C(=O)Nc1nc2cc(C(N)=O)cc(OC)c2n1C/C=C/Cn1c(NC(=O)c2cc(C)nn2CC)nc2cc(C(N)=O)cc(OCCC3CN(C(=O)CCN4C(=O)CC(SC[C@H](N)C(=O)O)C4=O)C3)c21 (stereo partly drawn) [Compound 29, S-(1-(3-(3-(2-((5-carbamoyl-1-((E)-4-(5-carbamoyl-2-(1-ethyl-3-methyl-1H-pyrazole-5-carboxamido)-7-methoxy-1H-benzo[d]imidazol-1-yl)but-2-en-1-yl)-2-(1-ethyl-3-methyl-1H-pyrazole-5-carboxamido)-1H-benzo[d]imidazol-7-yl)oxy)ethyl)azetidin-1-yl)-3-oxopropyl)-2,5-dioxopyrrolidin-3-yl)-L-cysteine] | 52
12 | CCn1nc(C)cc1C(=O)Nc1nc2cc(C(N)=O)cc(OC)c2n1C/C=C/Cn1c(NC(=O)c2cc(C)nn2CC)nc2cc(C(N)=O)cc(OCCCOC3CN(C(=O)CCN4C(=O)CC(SC[C@H](N)C(=O)O)C4=O)C3)c21 (stereo partly drawn) [Compound 30, S-(1-(3-(3-(3-((5-carbamoyl-1-((E)-4-(s-carbamoyl-2-(1-ethyl-3-methyl-1H-pyrazole-5-carboxamido)-7-methoxy-1H-benzo[d]imidazol-1-yl)but-2-en-1-yl)-2-(1-ethyl-3-methyl-1H-pyrazole-5-carboxamido)-1H-benzo[d]imidazol-7-yl)oxy)propoxy)azetidin-1-yl)-3-oxopropyl)-2,5-dioxopyrrolidin-3-yl)-L-cysteine] | 87
13 | CCn1ncc(C)c1C(=O)Nc1nc2cc(C(N)=O)cc(O)c2n1C/C=C/Cn1c(NC(=O)c2c(C)cnn2CC)nc2cc(C(N)=O)cc(OC)c21 [Compound 31] | 176
14 | CCn1nc(C(=O)Nc2nc3cc(C(N)=O)cc(O)c3n2C/C=C/Cn2c(NC(=O)c3cc(C)n(CC)n3)nc3cc(C(N)=O)cc(OC)c32)cc1C [Compound 32] | 44.5
15 | COc1cc(C(N)=O)cc2nc(NC(=O)c3ccco3)n(C/C=C/Cn3c(NC(=O)c4ccco4)nc4cc(C(N)=O)cc(O)c43)c12 [Compound 33] | > 10000
16 | COc1cc(C(N)=O)cc2nc(NC(=O)c3cccs3)n(C/C=C/Cn3c(NC(=O)c4cccs4)nc4cc(C(N)=O)cc(O)c43)c12 [Compound 35] | > 10000
17 | CCn1nccc1C(=O)Nc1nc2cc(C(N)=O)cc(O)c2n1C/C=C/Cn1c(NC(=O)c2ccnn2CC)nc2cc(C(N)=O)cc(OC)c21 [Compound 37] | > 10000

Next, values leading:

Row | EC50 [nM] | Structure (SMILES)
18 | 12 | CCn1nc(C)cc1C(=O)Nc1nc2cc(S(N)(=O)=O)ccc2n1C/C=C/Cn1c(NC(=O)c2cc(C)nn2CC)nc2cc(C(N)=O)cc(OCCCN(C)C(=O)OC(C)(C)C)c21 [Compound 25f]
19 | 1580 | CCn1nc(C)cc1C(=O)Nc1nc2cc(S(N)(=O)=O)ccc2n1C/C=C/Cn1c(NC(=O)c2cc(C)nn2CC)nc2cc(C(N)=O)cc(OCCCNC)c21 [Compound 25g]
20 | 69 | CCn1nc(C)cc1C(=O)Nc1nc2cc(C(N)=O)cc(OC)c2n1C/C=C/Cn1c(NC(=O)c2cc(C)nn2CC)nc2cc(C(N)=O)cc(OCCC3CNC3)c21 [Compound 26f]
21 | 38 | CCn1nc(C)cc1C(=O)Nc1nc2cc(C(N)=O)cc(OC)c2n1C/C=C/Cn1c(NC(=O)c2cc(C)nn2CC)nc2cc(C(N)=O)cc(OCCCOC3CNC3)c21 [Compound 27f]

same assay, conditions: conjugated to a targeted mAb, 48 h

Row | Structure (SMILES) | potency of ADC relative to other ADC
22 | CCn1nc(C)cc1C(=O)Nc1nc2cc(C(N)=O)cc(OC)c2n1C/C=C/Cn1c(NC(=O)c2cc(C)nn2CC)nc2cc(C(N)=O)cc(OCCCN(C)C(=O)OCc3ccc(O[C@@H]4O[C@H](C(=O)O)[C@@H](O)[C@H](O)[C@H]4O)cc3NC(=O)CCNC(=O)CCN3C(=O)C=CC3=O)c21 [Compound 13] | more potent

same assay, conditions: free compounds, 24 h, Lucia reporter signal; read-out: EC50

Row | EC50 [nM] | Structure (SMILES)
23 | 5 | CCn1nc(C)cc1C(=O)Nc1nc2cc(C(N)=O)cc(OC)c2n1C/C=C/Cn1c(NC(=O)c2cc(C)nn2CC)nc2cc(C(N)=O)cc(OCCC3CN(C(=O)OC(C)(C)C)C3)c21 [Compound 26e]
24 | 1.3 | CCn1nc(C)cc1C(=O)Nc1nc2cc(C(N)=O)cc(OC)c2n1C/C=C/Cn1c(NC(=O)c2cc(C)nn2CC)nc2cc(C(N)=O)cc(OCCCOC3CN(C(=O)OC(C)(C)C)C3)c21 [Compound 27e]

same assay, conditions: free drug

Row | Structure (SMILES) | potency relative to other free compound
25 | CCn1nc(C)cc1C(=O)Nc1nc2cc(C(N)=O)cc(O)c2n1C/C=C/Cn1c(NC(=O)c2cc(C)nn2CC)nc2cc(C(N)=O)cc(OCCCNC)c21 [Compound 15b] | more potent than 12a
